Results taken from patent US20140255301A1, “METHODS FOR DETECTING NEURODEGENERATIVE DISEASES OR DISORDERS” (priority 2010, published 2014).
Entries after “also recorded” stand apart in the source; their conditions may differ. Numbered stars: 1 amine (or outer) side, 2 acyl side, 3 side chain; on linkers, the order of the positions; unused ones are H or OH. Bridge positions count the residues as written; N and C are the ends. Square brackets hold non-standard residues; d marks the D form. Peptide text beside a SMILES is read from it. I, II: the chains in the order shown. Actinocin(9to1) = Cc1c2oc3c(C)ccc(C(=O)[*:1])c3nc-2c(C(=O)[*:2])c(N)c1=O; NMeV = CN[C@H](C(=O)O)C(C)C; Sar = CNCC(=O)O

Key:
[1] = tested on: axon degeneration of DRG neurons following NGF withdrawal; assay: Campenot chamber localized axon degeneration after NGF withdrawal (Tuj1 immunostaining); type: cell-based, mouse; conditions: for axon degeneration due to NGF deprivation, inhibitor applied to the axon (axon inhibition): inhibitor in axon compartment, 28 hours NGF deprivation of axons, anti-NGF antibody 50 μg/ml; for axon degeneration due to NGF deprivation, inhibitor applied to the cell body (cell body inhibition): inhibitor in cell body compartment with 25 ng/ml NGF, axons deprived of NGF
Experimental: Campenot chambers were used to perform the following experiments which allow for the separation of somal and axonal environments, and permit the induction of localized degeneration (see FIG. 1 and, e.g., Zweifel et al., Nat. Rev. Neurosci. 6(8):615-625, 2005). In such chambers, axon degeneration is localized and proceeds without apoptosis.
Mouse laminin (5 μg/ml in sterile filtered water; Invitrogen) was added to PDL coated 35 mm dishes (BD Biosciences) and they were incubated for 1 hour at 37° C., followed by two rinses in SQ water. The dishes were vacuum-dried and then air-dried in a laminar flow hood for 15 minutes. Prepared dishes were then scored with a pin rake (Tyler Research). Fifty microliters of NBM+MC solution containing NGF was applied across the resulting score tracks. The NBM+MC solution was made as follows: 1750 mg of methylcellulose was combined with 480 ml of Neurobasal (Invitrogen), to which was added 4.5 ml penicillin/streptomycin, 7.5 ml L-glutamine, and 10 ml B-27 serum-free supplement (Invitrogen). The solution was mixed for one hour at room temperature, overnight at 4° C., and one further hour at room temperature. The solution was then filter sterilized, and 50 ng/ml NGF (Roche) was added prior to use. High vacuum grease (VWR) was added to each Teflon divider under a dissection scope. The laminin coated PDL dishes were inverted and dropped onto the Teflon divider, with additional pressure added by use of a toothpick in the non-track-containing regions. Dishes were incubated for 1 hour at 37° C. Five hundred microliters of NBM+MC (50 ng/ml NGF) solution was added to each of the side compartments, and a grease barrier was added in front of the center cell slot.
Free E13.5 spinal cords were dissected from mouse embryos and placed into NBM+MC (25 ng/ml NGF) solution. DRGs were detached from the spinal cord with a tungsten needle. An NBM+MC-lubricated P200 pipette was used to move DRGs into a 1.5 ml tube. DRGs were pelleted with a tabletop centrifuge for 30 seconds. The supernatant was discarded and 0.05% Trypsin/EDTA (cold) was added. The pellet was resolubilized with a pipette and incubated at 37° C. for 15 minutes with constant agitation (650 RPM). The sample was again centrifuged and the supernatant discarded. The pellet was resuspended in warm NBM+MC (50 ng/ml NGF) solution and triturated with a flamed glass pipette 20 times, followed by trituration with a fire-bored glass pipette another 20 times. The samples were again centrifuged and the resulting pellets were resuspended in 0.5 ml NBM+MC (50 ng/ml NGF) solution. The cells were diluted to a final concentration of 2.5×10^6 cells/ml. The cell suspensions were loaded into a 1 ml syringe with a 22 gauge needle. The center slot of the Campenot divider was filled using the syringe (to a volume of at least 50 μl). The Campenot chamber was incubated overnight at 37° C. 2.5 ml NGF+MC (50 ng/ml NGF) solution was added to the center compartment and the grease gate was removed. The outer medium (cell body compartment) was replaced after three days with 2.5 ml NBM+MC medium (with 25 ng/ml NGF).
After five days in culture, the axonal compartment was washed three times with warmed NBM+MC (no NGF) solution. After the third wash, 500 μl NBM+MC (no NGF) solution was added to the axon compartment in combination with either 0.5% DMSO or an inhibitor. The cell body compartment was replaced with 2.5 ml NBM+MC medium (with 25 ng/ml NGF) containing either 0.5% DMSO or inhibitor. Fifty μg/ml anti-NGF antibody was added to the axonal compartment. Another axon compartment was maintained in NGF as a control.
After 28 hours of NGF deprivation for axons, and 25 hours of NGF deprivation for cell bodies, 8% PFA/30% sucrose solution was added directly to the culture medium at a 1:1 dilution and incubated for 30 minutes. The Teflon divider was removed after the first 15 minutes of addition. […]

[2] = tested on: dleu2 and tbx6 expression; assay: Time course microarray analysis of neurons in Campenot chambers undergoing axon loss; type: cell-based, mouse; conditions: 30 μM inhibitor in outer compartment, NGF deprivation for 6 and 12 hours
Experimental: Based on the experiments described above, glycogen synthase kinase-3 (GSK-3) was identified as being a regulator of a genetic axon degeneration program acting specifically in the cell body to regulate distal axon degeneration. To identify GSK3 regulated axon degeneration genes, time course microarray analysis was performed on neurons selectively undergoing […], with or without GSK-3 inhibition.
Briefly, neurons were isolated and cultured in Campenot chambers as previously described. Campenot chambers were set up with 50 μM 5-fluoro-2′-deoxyuridine/uridine (both Sigma) added to the culture medium to reduce contamination by non-neuronal cells. On day 5, both axon compartments were washed three times with NGF-free medium and on the fourth wash, replaced with medium containing NGF (control) or NGF antibodies (50 μg/ml) (911, Genetech). The outer compartment was replaced with medium containing 30 μM of the GSK3 inhibitor ARA (EMD Biosciences) or 0.3% DMSO. RNA was extracted from neurons with or without GSK3 ARA treatment which had been cultured with NGF or deprived of NGF for 6 and 12 hours. RNA was prepared with Trizol® (Invitrogen) followed by the RNeasy® Micro Kit processing with DNAse I treatment (Qiagen) as described in Appendix C of the RNeasy® Micro Kit manual. For each condition, five Agilent Whole Mouse Genome microarray chips were used with single amplification.

SMILES	axon degeneration due to NGF deprivation, inhibitor applied to the axon (axon inhibition) [1]	axon degeneration due to NGF deprivation, inhibitor applied to the cell body (cell body inhibition) [1]	axon degeneration due to NGF deprivation, inhibitor applied to the axon (axon inhibition) ([1]; listed as actinomycin D)	axon degeneration due to NGF deprivation, inhibitor applied to the cell body (cell body inhibition) ([1]; listed as actinomycin D)	overexpression of dleu2 and tbx6 in neurons deprived of NGF [2]	overexpression of dleu2 and tbx6 in neurons deprived of NGF ([2]; listed as GSK3.ARA)
N#C/C(=C\c1ccc(O)c(O)c1)C(=O)NCCCc1ccccc1 [AG555]	exhibited less degeneration; also recorded: prevented axonal degradation	failed to prevent degeneration; also recorded: did not provide the same protective effect	–	–	–	–
Cc1c2oc3c(C)ccc(C(=O)N[C@@H]4C(=O)N[C@H](C(C)C)C(=O)N5CCC[C@H]5C(=O)N(C)CC(=O)N(C)[C@@H](C(C)C)C(=O)O[C@@H]4C)c3nc-2c(C(=O)N[C@@H]2C(=O)N[C@H](C(C)C)C(=O)N3CCC[C@H]3C(=O)N(C)CC(=O)N(C)[C@@H](C(C)C)C(=O)O[C@@H]2C)c(N)c1=O [Act D, actinomycin D] (I: T[dV]P[Sar][NMeV] / II: T[dV]P[Sar][NMeV]; ester I:1-I:C, II:1-II:C; linker I:N-II:N via Actinocin(9to1))	did not prevent axonal degradation	axon degradation due to NGF deprivation was reduced	did not provide the same protective effect	prevented axonal degeneration	–	–
COc1ccc(CNC(=O)Nc2ncc([N+](=O)[O-])s2)cc1 [GSK3 ARA]	–	–	–	–	overexpression of these genes is not observed at any time point	Increased expression of dleu2 and tbx6 is not observed
COc1nccc(-c2c(-c3ccc(F)cc3)ncn2C2CCC(O)CC2)n1 (stereo not drawn) [SB239]	exhibited less degeneration; also recorded: prevented axonal degradation	failed to prevent degeneration; also recorded: did not provide the same protective effect	–	–	–	–
O=C1NC(=O)C(c2ccccc2[N+](=O)[O-])=C1Nc1ccc(O)c(Cl)c1 [SB415]	did not prevent axonal degradation; also recorded: did not provide the same protective effect	axon degradation due to NGF deprivation was reduced; also recorded: prevented axonal degeneration	–	–	–	–
